Measured values from US20050180954A1, “Drug for treating bone disorders” (priority 1995, published 2005).

What was measured:
[1] = tested on: MC3T3-E1 cells; assay: Mineralization of murine osteoblasts, Von Kossa stain (in vitro single administration); type: cell-based, mouse; conditions: Day 14
Experimental: As the parameters for evaluation of differentiation ability, alkaline phosphatase (ALPase) and mineralization were employed. Detection of alkaline phosphatase which is a marker of differentiation of osteoblasts was carried out on Day 8 from the beginning of the culturing by staining method. Evaluation of mineralization was carried out as follows. That is, MC3T3-E1 cells were placed in each well of 24-well plates in an amount of 50,000 cells/ml (10 times in the case of anti-cell test in Example 3). On Day 4, after confirming that the cells sufficiently reached confluency, the medium was discarded and fresh α-MEM containing 10% JCS, 50 μg/ml of L-ascorbic acid and 10 mM β-glycerophosphate was added in an amount of 0.9 ml/well, followed by adding medium containing varying concentration of IFN. Four days later, the medium was replaced with IFN-free medium, and the medium was replaced with IFN-free medium every 4 days. On Day 14, Von Kossa stain was performed to visualize the calcified foci. Expression of alkaline phosphatase activity which is a differentiation marker is an indispensable step to the subsequent mineralization.

[2] = tested on: ovariectomized mice of ddy strain; assay: Osteoporosis model mice: urinary D-Pyr (bone resorption marker); type: in vivo, mouse; conditions: for amount of excreted urinary D-Pyr compensated with urinary creatinine: ovariectomized mice, Week 4
Experimental: Female mice of ddy strain of 8 weeks old were divided into 5 groups and experiment was carried out. Bilateral ovariectomy was performed on the mice in 3 groups and sham operation alone was performed on the mice in 2 groups. Thereafter, the mice were raised with normal diet for 1 month, thereby making the state of osteoporosis in the ovariectomized groups. In this model, it is known that the mice become the state of osteoporosis 2 to 3 weeks after the ovariectomy (T. Hosaka et al., ANITEX, Vol. 5, 243, 1992; Miyaura, C. et al., J. Bone Mineral Res., 10, 1365, 1995). From the third weeks from the ovariectomy, murine IFN was subcutaneously administered (100 μl/head/time) once per day, totally 25 times. On Day 30 from the beginning of administration, under ether anesthesia, body weight was measured, blood was collected, and femur was collected and dry bone weight thereof was measured for each mouse.
Drying of femur was performed as follows. That is, femur was fixed with 2 ml of 70% ethanol per one taken out femur at room temperature for 24 hours and then the attached muscles and connective tissues were carefully removed with a forceps and surgical knife with replaceable blade. After immersing the femur in fresh 70% ethanol for 72 hours at room temperature, the femur was dried in a hot wind-generating incubator (Koukensha Engineering. Co., Tokyo) at 55° C. for 24 hours. The weight of the dried bone was measured with an electronic force balance (Mettler AE50, Metteler Instrumente AG, Switzerland). Murine IFN to be administered was diluted to the desired concentration with physiological saline. During the test, urine of mice was collected with metabolic cage (KN-645, Natsumeseisakusho, Tokyo) and frozen to store. To one group subjected to the sham operation, physiological saline (Otsuka Pharmaceutical Co.) was administered, and to another group subjected to the sham operation, murine IFNβ was administered at a dose of 10^5 units/head/time (diluted with physiological saline when use). […]

[3] = tested on: MC3T3-E1 cells; assay: Quantification of calcium in calcified foci of MC3T3-E1; type: cell-based, mouse; conditions: 1000 units/ml; MC3T3-E1, Day 14
Experimental: MC3T3-E1 cells were placed in each well in 24-well plates in an amount of 50,000 cells/well and cultured to confluency. The medium was removed and fresh α-MEM containing 10% JCS, 50 μg/ml of L-ascorbic acid and 10 mM β-glycerophosphate was added in an amount of 0.9 ml/well, followed by adding 0.1 ml/well of medium containing varying concentration of IFN. The medium was replaced with IFN-free medium every 4 days. On Day 14, the medium was removed and the cells were lightly washed with Hank's solution. Anhydrous ethanol was added in an amount of 1 ml/well and fixation was carried out at room temperature for 15 minuets. Then the anhydrous ethanol was replaced with fresh anhydrous ethanol in an amount of 1 ml/well and 5 minutes later, each well was dried in the air. Then 1N hydrochloric acid was added in an amount of 1 ml/well and extraction was carried out at room temperature for 30 minutes. The total contents of each well were transferred to an Eppendorf tube and centrifuged at 1800×g at 4° C. for 10 minutes The amount of calcium in the supernatant was measured by Calcium C Test Wako and the amount of inorganic phosphorus in the supernatant was measured by Phospha B Test Wako. […] The IC50 value was as low as about 10 units/ml (FIG. 5).

## MuIFNβ: murine interferon β, Lot M-0034, prepared by Toray Industries, Inc. by genetic engineering technique
[1]
  influence on mineralization (calcified foci, Von Kossa stain): mineralization proceeded without substantial influence
[2]; 10^3 units/head/time
  amount of excreted urinary D-Pyr compensated with urinary creatinine: inhibition of bone resorption was observed
[2]; 10^5 units/head/time
  amount of excreted urinary D-Pyr compensated with urinary creatinine: inhibition of bone resorption was observed
[2]; sham operation groups
  inhibition of excretion of urinary deoxypyridinoline: is exhibited also in the sham operation groups
[3]
  calcium deposition smaller than the control: 20%
